{"source": "patent US8728493B2", "about": "“Polymer based compositions and conjugates of non-steroidal anti-inflammatory drugs” (Nektar Therapeutics, priority 2005, dated 2014)", "origin": "cited, not measured here", "conditions": "non-conjugated drug; conditions not stated", "data": [{"smiles": "O=C(c1ccccc1)c1ccc2n1CCC2C(=O)O", "note": "(stereo not shown) [non-conjugated ketorolac, ketorolac]", "values": [{"measurement": "half-life of non-conjugated ketorolac", "result": "approximately 2 hours"}]}]}
